“Also recorded” adds a separate entry of the source. Read-outs that look alike come from different tables or passages of the source.
Key:
[1] = test system: paclitaxel-resistant cells; settings: frequently observed; cited from earlier work
[2] = test system: HAβ1L215H transfected CHO cells; experiment: Immunofluorescence for HA tag in drug-selected HAβ1L215H transfected populations; type: cell-based, Chinese hamster
Method: FIG. 8 depicts paclitaxel selects for transfected cells that express mutant HAβ1-tubulin. Cells transfected with HAβ1L215H cDNA were selected for resistance to G418 (A, B) or paclitaxel (C, D) either in the presence (A, C) or absence (B, D) of 1 μg/ml tetracycline. The total resistant cell population was then trypsinized and replated for 24 h in medium without tetracycline or paclitaxel before processing for immunofluorescence with an antibody specific for the HA tag. Arrows in B and C indicate cells that were positive for HAβ1L215H-tubulin expression. Approximately 50% of the cells in panel A, and 100% of the cells in panel D were positive for expression. Bar=10 μm.
Cells were grown on glass coverslips to approximately 70% of confluence and fixed in methanol (−20° C.) for at least 10 min as previously described (Gonzalez-Garay, M. L., and Cabral, F.). The primary antibody used for most experiments was mouse monoclonal 12CA5 (Boehringer Mannheim Corp., Indianapolis, Ind.), specific for the HA tag. This was followed by fluorescein conjugated goat antimouse IgG (Cappel). […]
The ability of β-tubulin mutations to confer paclitaxel resistance was evaluated in 2 ways. […] After the appearance of visible colonies (6–7 d), one duplicate dish was stained with methylene blue and colonies were counted. […]

[3] = test system: CHO cell line tTApuro 6.6 transfected with HAβ1L215H cDNA; experiment: Cloning efficiencies of HAβ1L215H transfected cells under selective conditions; type: cell-based, Chinese hamster; settings: for Number of colonies relative to G418+tetracycline, arbitrarily set at 100 / Cloning efficiency (colonies under selective conditions divided by colonies in αMEM+tetracycline): 2 mg/ml G418 or 0.2 μg/ml paclitaxel; for Cloning efficiency (colonies under selective conditions divided by colonies in αMEM+tetracycline): 6–10 d
Method: (§1) The ability of β-tubulin mutations to confer paclitaxel resistance was evaluated in 2 ways. In the first, stably transfected cell lines expressing mutant HAβ1-tubulin were seeded at approximately 100 cells/well in replicate wells of a 24-well dish containing increasing concentrations of paclitaxel. The assay was carried out in duplicate with only one set containing 1 μg/ml tetracycline. After 6–7 d, the medium was removed and the resistant colonies were stained with a solution of 0.1% methylene blue as previously described (Cabral, F., Sobel, M. E., and Gottesman, M. M. (1980) Cell 20, 29–36). In a second assay, aliquots (˜7×10^4 cells for selective, and ˜100 cells for non-selective conditions) from total transfected cell populations were seeded into duplicate 6-well dishes containing normal medium (non-selective), 2 mg/ml G418, or 0.2 μg/ml paclitaxel, each with or without 1 μg/ml tetracycline. After the appearance of visible colonies (6–7 d), one duplicate dish was stained with methylene blue and colonies were counted. Cells in the second dish were trypsinized and replated onto glass coverslips for immunofluorescence observation.
To rule out the possibility that we may have biased the results by examining specific clones of mutant HAβ1-tubulin expressing cells, we also tested the relative abilities of G418 and paclitaxel to select mutant HAβ1-tubulin positive cells from the total transfected cell populations. We reasoned that paclitaxel should be a powerful agent for selection of mutant HAβ1-tubulin expressing cells if, and only if, the mutant tubulin is capable of conferring resistance to the drug. To test this prediction, aliquots from an HAβ1L215H transfected cell population were grown under 6 different conditions: normal medium, medium containing 2 mg/ml G418, and medium containing 0.2 μg/ml paclitaxel, each in the presence or absence of 1 μg/ml tetracycline. Using the number of colonies obtained under nonselective conditions (normal medium containing tetracycline) as a control, the relative cloning efficiencies under the various selective conditions are summarized in Table II.
In Table II, CHO cell line tTApuro 6.6 was transfected with HAβ1L215H cDNA. At 24 h post-transfection, the cells were trypsinized and replated in normal medium (αMEM), medium containing 2 mg/ml G418, or medium containing 0.2 μg/ml paclitaxel, all either in the presence or absence of 1 μg/ml tetracycline. After 6–10 d (when visible colonies were seen) the cells were stained with methylene blue and the surviving colonies were counted. The cloning efficiency was calculated as the number of colonies obtained under selective conditions (G418 or paclitaxel) divided by the number of colonies obtained under nonselective conditions (αMEM+tetracycline). Numbers in parentheses are the number of colonies obtained relative to G418+tetracycline which was arbitrarily set at 100.

[4] = test system: paclitaxel dependent cell line Tax-18; experiment: Cross-resistance growth assay in 24 well dishes, Tax-18; settings: for Rescue of growth of drug-dependent Tax-18: no growth without drug
Method: Wild-type CHO cells (WT), Taxol resistant mutant Tax 5-6 (Tax^R), and Taxol dependent mutant Tax 18 (Tax^D) were seeded into replicate wells of 24 well dishes at a density of approximately 100 cells per well in increasing concentrations of Taxol or Taxotere as indicated (in μg/ml). The cells were grown 7 days and then stained with methylene blue.

[5] = test system: CHO cells transfected with HAβ1, HAβ1G38E, HAβ1L217R or HAβ1L228F cDNAs; experiment: Direct selection of paclitaxel resistant transfected cells; type: cell-based, Chinese hamster
Method: as §1

[6] = test system: wild-type CHO cells; experiment: Lethality of paclitaxel to wild-type cells; type: cell-based, Chinese hamster; settings: tetracycline-free medium
Method: Measurement of drug resistance using a standard cloning efficiency assay was complicated by the observation that clones producing moderate to high levels of mutant HAβ1-tubulin grew poorly and produced many multinucleated cells. This problem was circumvented in 2 different ways. The first came from an observation that among the multinucleated cells, there were some cells that still looked normal. […] To select these cells, clones transfected with mutant HAβ1-tubulin were incubated in tetracycline-free medium containing a concentration of paclitaxel (0.2 μg/ml) that is lethal to wild-type cells. Multiple individual colonies were selected and tested for their dose response to paclitaxel; representative results are shown in FIG. 7. […] Thus HAβ1, HAβ1L215H, HAβ1L217R, and HAβ1L228F expressing cells were all tested for paclitaxel sensitivity in the presence or absence of tetracycline.

[7] = test system: KB3 cervical carcinoma cell line; settings: preliminary evidence
[8] = test system: paclitaxel resistant human ovarian cells; settings: gradually selected to higher levels of resistance; cited from earlier work
[9] = test system: Paclitaxel Resistant CHO Cells
Method: Metabolic labeling was for 1 h in methionine-free MEM (ICN Biomedicals Inc., Costa Mesa, Calif.) containing 30 μCi/ml Tran ^35S-label (1,000 Ci/mmol; ICN Biomedicals).

[10] = test system: CHO cells transfected with HAβ1, HAβ1L215H, HAβ1L217R or HAβ1L228F; experiment: Paclitaxel dose response of stably transfected cell lines with or without tetracycline (24-well, methylene blue); type: cell-based, Chinese hamster; settings: for Sensitivity to paclitaxel: cells transfected with mutant HAβ1-tubulin
Method: FIG. 7 depicts mutant HAβ1-tubulins confer paclitaxel resistance. Approximately 100 cells were seeded into replicate wells of 24-well dishes containing the indicated concentrations of paclitaxel (in ng/ml) with (“+”) or without (“−”) 1 μg/ml tetracycline. The cells were allowed to grow for 6–7 d and were then stained with methylene blue. The cell lines came from transfections with HAβ1 (A), HAβ1L215H (B), HAβ1L217R (C), or HAβ1L228F (D).
as §1
Measurement of drug resistance using a standard cloning efficiency assay was complicated by the observation that clones producing moderate to high levels of mutant HAβ1-tubulin grew poorly and produced many multinucleated cells. This problem was circumvented in 2 different ways. The first came from an observation that among the multinucleated cells, there were some cells that still looked normal. […]

[11] = test system: Taxol resistant mutant Tax 5-6; experiment: Cross-resistance growth assay in 24 well dishes, Tax 5-6; type: cell-based, Chinese hamster; settings: about 100 cells per well, grown 7 days

In the case of `CC[C@]1(O)C[C@H]2CN(CCc3c([nH]c4ccccc34)[C@@](C(=O)OC)(c3cc4c(cc3OC)N(C=O)[C@H]3[C@@](O)(C(=O)OC)[C@H](OC(C)=O)[C@]5(CC)C=CCN6CC[C@]43[C@@H]65)C2)C1` [vincristine], the “Sensitivity of paclitaxel-resistant cells to the drug” value (shortened to “Sensitivity … to the drug”) [1] is given as “hypersensitive”.
For `CN[C@@H]1[C@@H](O)[C@@H](O[C@@H]2[C@@H](O)[C@H](O[C@H]3O[C@H]([C@@H](C)O)[C@@H](O)[C@H](O)[C@H]3N)[C@@H](N)C[C@H]2N)OC[C@]1(C)O` [G418], the “HA-positive cells in the selected population” value ([2]; selected under inducing conditions (no tetracycline)) was less than 10%, the “Number of colonies relative to G418+tetracycline, arbitrarily set at 100” value ([3]; +Tetracycline 1 μg/ml) was 100 and the “Cloning efficiency (colonies under selective conditions divided by colonies in αMEM+tetracycline)” value ([3]; +Tetracycline 1 μg/ml) was 1.3 × 10^−3. For the same compound, the “Lowering of selection efficiency under inducing conditions (no tetracycline) versus with tetracycline” value ([3]; G418 2 mg/ml) was “about 40%”, the “Number of colonies relative to G418+tetracycline, arbitrarily set at 100” value ([3]; −Tetracycline) was 60 and the “Cloning efficiency (colonies under selective conditions divided by colonies in αMEM+tetracycline)” value ([3]; −Tetracycline) was 7.9 × 10^−4.
In the case of `COc1cc2c(c(OC)c1OC)-c1ccc(OC)c(=O)cc1[C@@H](NC(C)=O)CC2` [colchicine], the “Sensitivity … to the drug” value [1] is listed as “increased sensitivity”.
For `C/C(=C\c1csc(C)n1)[C@@H]1C[C@@H]2O[C@]2(C)CCC[C@H](C)[C@H](O)[C@@H](C)C(=O)C(C)(C)[C@@H](O)CC(=O)O1` [epothilone-B], the “Resistance of Tax-18 to cytotoxic effects compared to wild-type cells” value ([4]; grown 7 d, stained with methylene blue) was “more resistant” and the “Rescue of growth of drug-dependent Tax-18” value (shortened to “Rescue”) ([4]; grown 7 d) was “rescued”.
With `CC(=O)O[C@H]1C(=O)[C@@]2(C)[C@H]([C@H](OC(=O)c3ccccc3)[C@]3(O)C[C@H](OC(=O)[C@H](O)[C@@H](NC(=O)c4ccccc4)c4ccccc4)C(C)=C1C3(C)C)[C@]1(OC(C)=O)CO[C@@H]1C[C@@H]2O` [Paclitaxel, paclitaxel] the “Paclitaxel resistant cells obtained by direct selection” value ([5]; HAβ1L217R and HAβ1L228F cDNAs) was “many paclitaxel resistant colonies”, the “Paclitaxel resistant cells obtained by direct selection” value ([5]; HAβ1 or HAβ1G38E cDNAs, repeated three times) was “no paclitaxel resistant cells were obtained” and the “Concentration lethal to wild-type cells” value [6] was 0.2 µg/mL. For the same compound, the “Drug sensitivity of paclitaxel-selected mutant KB3 cells” value [7] was “resistant”, the “HA-positive cells in the selected population” value ([2]; selected under non-inducing conditions (with tetracycline), assayed following induction) was less than 5% and the “Fold resistance versus unselected cells” value [8] was 24 fold. The “Resistant or Dependent” value ([9]; cell line Tax 1–4, β-tubulin L215H) was “R”, the “Resistant or Dependent” value ([9]; cell line Tax 1–19, β-tubulin L215R) was “R” and the “Resistant or Dependent” value ([9]; cell line Tax 4–9, β-tubulin L215H) was “R”. For the same compound, the “Resistant or Dependent” value ([9]; cell line Tax 6–9, β-tubulin L217R) was “R”, the “Fold resistance to paclitaxel of cell lines selected in one step” value ([9]; single-step selection with a single lethal dose of paclitaxel) was 2-3 fold and the “Selection under inducing conditions less efficient than G418 with tetracycline” value ([3]; 0.2 μg/ml paclitaxel, no tetracycline) was 5 times. The “Fewer colonies under non-inducing conditions than under inducing conditions” value ([3]; 0.2 μg/ml paclitaxel, with tetracycline) was 18 fold, the “Number of colonies relative to G418+tetracycline, arbitrarily set at 100” value ([3]; +Tetracycline 1 μg/ml) was 1 and the “Cloning efficiency (colonies under selective conditions divided by colonies in αMEM+tetracycline)” value ([3]; +Tetracycline 1 μg/ml) was 1.4 × 10^−5. For the same compound, the “Number of colonies relative to G418+tetracycline, arbitrarily set at 100” value ([3]; −Tetracycline) was 18, the “Cloning efficiency (colonies under selective conditions divided by colonies in αMEM+tetracycline)” value ([3]; −Tetracycline) was 2.3 × 10^−4 and the “Sensitivity to paclitaxel, HAβ1 expressed versus not expressed” value ([10]; HAβ1 (wild-type) transfected cells, with or without tetracycline) was “same sensitivity”. The Sensitivity to paclitaxel ([10]; grown with tetracycline) was “wild-type paclitaxel sensitivity”, the Sensitivity to paclitaxel ([10]; grown without tetracycline) was “clear resistance” and the “Rescue” value ([4]; grown 7 d) was “rescued”. The “Resistance of Tax 5-6 compared to wild-type cells” value [11] was “more resistant”.
For `CC(=O)O[C@@]12CO[C@@H]1C[C@H](O)[C@@]1(C)C(=O)[C@H](O)C3=C(C)[C@@H](OC(=O)[C@H](O)[C@@H](NC(=O)OC(C)(C)C)c4ccccc4)C[C@@](O)([C@@H](OC(=O)c4ccccc4)[C@H]21)C3(C)C` [Taxotere], the “Resistance of Tax-18 to cytotoxic effects compared to wild-type cells” value [4] was “resistant”, the “Rescue” value ([4]; grown 7 d) was “rescued” and the “Resistance of Tax 5-6 compared to wild-type cells” value [11] was “more resistant”.
For `CC[C@]1(O)C[C@@H]2CN(CCc3c([nH]c4ccccc34)[C@@](C(=O)OC)(c3cc4c(cc3OC)N(C)[C@H]3[C@@](O)(C(=O)OC)[C@H](OC(C)=O)[C@]5(CC)C=CCN6CC[C@]43[C@@H]65)C2)C1` [vinblastine], the “Sensitivity … to the drug” value [1] is listed as “increased sensitivity; also recorded: hypersensitive” and the “Drug sensitivity of paclitaxel-selected mutant KB3 cells” value [7] is listed as “hypersensitive”.

Reference: patent publication US7179588B1, “Assay for the detection of paclitaxel resistant cells in human tumors” (Board of Regents of the University of Texas System, priority 1999, dated 2007)
